From patent publication US20240147998A1, “HERBICIDAL COMPOSITIONS COMPRISING IMIDAZOLINONE-BASED ACETOLACTATE SYNTHASE INHIBITORS AND USES THEREOF” (Adama Agan Ltd., priority 2021, published 2024)
Like-named read-outs stand apart in the source and are kept apart here.

Columns and labels:
[1] = Method: A formulation comprising imazapic, benzyl alcohol and Tween-20 as detailed in Table 1 was prepared by (i) adding benzyl alcohol to a reactor; adding Tween-20 while mixing; (iii) gradually adding imazapic and continue mixing until the solution obtained is clear; (iv) discharging said solution from the reactor; and (v) filtering the solution using a 5 μm filter.
[2] = 20° C.; cited from earlier work
[3] = 20° C., cited from earlier work

| SMILES | solubility in organic solvents suitable for agricultural applications [1] | solubility in isopropyl alcohol [2] [g/100 mL] | solubility in methanol [2] [g/100 mL] | solubility in octanol [2] [g/100 mL] | solubility in water ([3]; pH 5) [g/100 mL] | solubility in water ([3]; pH 7) [g/100 mL] |
| --- | --- | --- | --- | --- | --- | --- |
| Cc1cnc(C2=NC(=O)C(C)(C(C)C)N2)c(C(=O)O)c1 (stereo not drawn) [imazapic] | dissolve | – | – | – | – | – |
| CC(C)N(C)S(=O)(=O)NC(=O)c1cc(-n2c(=O)cc(C(F)(F)F)n(C)c2=O)c(F)cc1Cl [saflufenacil, 2-chloro-5-[3,6-dihydro-3-methyl-2,6-dioxo-4-(trifluoromethyl)-1-(2H)pyrimidinyl]-4-fluoro-N-[[methyl(1-methylethyl)amino]sulfonyl]benzamide] | – | 0.25 | 2.98 | < 0.01 | 0.0025 | 0.21 |
